Data: patent publication US4782073A, “Amides of [(5,6-dichloro-3-oxo-9-alpha-substituted-2,3,9,9-alpha-tetrahydrofluoren -7-yl-oxyl]acetic acids, and pharmaceutical compositions thereof” (Merck & Co., Inc., priority 1986, dated 1988)

Assays:
[1] = Distribution between octanol and aqueous buffer at pH 7.4; type: physicochemical
Description: a. Distribution between octanol and aqueous buffer at pH = 7.4 were
determined as described by R. A. Sherrer and S. M. Howard, J. Med. Chem.

[2] = Protein binding (bovine serum albumin); type: in vitro ADME; details: 4 × 10^-4 M bovine serum albumin
From the text: b. % Bound using 4 × 10^-4 M bovine serum albumin.

pKa = type: physicochemical; details: read-out: pV-a
[3] = test system: cat cerebrocortical tissue slices; assay: in vitro cat cerebrocortical tissue slice assay (inhibition of HCO3- stimulated swelling); type: cell-based; details: Felis catus, 1 h, compounds dissolved as sodium salts, 60 min incubation at 37° C, read-out: I50, concentration giving 50% inhibition of swelling
From the text: The (1) in vitro cat cerebrocortical tissue slice assay, (2) the in vitro primary rat astrocyte culture assay and (3) the in vivo cat head injury assay. The first assay, the in vitro cat cerebrocortical tissue slice assay has been described by Marshall, L. F.; Shapiro, H. M.; Smith, R. W. In "Seminars in Neurological Surgery: Neural Trauma"; Popp, A. J.; Bourke, R. S.; Nelson, L. R.; Kimelberg, H, K,. Eds.; Raven Press: New York, 1979; p 347, by Bourke, R. S.; Kimelberg, H, K.; Daze, M. A. in Brain Res. 1978, 154, 196, and by Bourke, R. S.; Kimelberg, H. K,; Nelson, L. R. in Brain Res. 1976, 105, 309. This method constitutes a rapid and accurate method of determining the intrinsic chloride inhibitory properties of the compounds of the invention in the target tissue.
Using the in vitro cat cerebrocortical tissue slice assay, described in Example 1, compounds of the present invention can be tested for activity. This test provides the principal in vitro evaluation and consists of a determination of concentration vs. response curve. […]
Following the 60 minute incubation period, tissue slices were separated from incubation medium by filtration, reweighed, and homogenized in 1 N HClO4 (10% w/v) for electrolyte analysis. […] Control slice swelling is expressed as microliters per gram initial preswelling fresh weight. […]

astroglial edema = details: in vitro assay, J. Med. Chem. 25, 567 (1982); cited from earlier work
[4] = test system: animals receiving experimental in vivo head injury; details: in vivo head injury assay, J. Med. Chem. 25, 567 (1982); cited from earlier work
[5] = test system: clinical cases of head injury; details: J. Med. Chem. 25, 567 (1982); cited from earlier work

SMILES	logD [1]	fraction unbound [2]	pKa (pKa)	IC50 [3]	activity in vitro (astroglial edema)	activity in vivo [4]	reduction of mortality in clinical cases of head injury [5]
CCC[C@]12CCC(=O)C=C1c1c(cc(OCC(=O)N[C@H](C(=O)O)C(C)C)c(Cl)c1Cl)C2	2	0.03	4.6	–	–	–	–
CCC[C@]12CCC(=O)C=C1c1c(cc(OCC(=O)N[C@@H](Cc3c[nH]cn3)C(=O)O)c(Cl)c1Cl)C2	1.95	0.079	6.9	–	–	–	–
CCC[C@]12CCC(=O)C=C1c1c(cc(OCC(=O)N[C@@H](Cc3ccc(O)cc3)C(=O)O)c(Cl)c1Cl)C2	1.99	0.022	4.12	–	–	–	–
CCC[C@]12CCC(=O)C=C1c1c(cc(OCC(=O)N[C@@H](Cc3ccccc3)C(=O)O)c(Cl)c1Cl)C2	2	0.057	4.58	–	–	–	–
CCC[C@]12CCC(=O)C=C1c1c(cc(OCC(=O)N[C@@H](CO)C(=O)O)c(Cl)c1Cl)C2	1.91	0.024	4.1	–	–	–	–
C=C(CC)C(=O)c1ccc(OCC(=O)O)c(Cl)c1Cl [ethacrynic acid]	–	–	–	–	exhibited activity	exhibited activity	effective in reducing mortality

Now from value to compound, other results behind:

logD [1]	fraction unbound [2]	pKa (pKa)	IC50 [3]	SMILES	activity in vitro (astroglial edema)	activity in vivo [4]	reduction of mortality in clinical cases of head injury [5]
1.97	0.028	4.25	20 nM	CCC[C@]12CCC(=O)C=C1c1c(cc(OCC(=O)NS(C)(=O)=O)c(Cl)c1Cl)C2 [Example 4, R(+)-N-Methylsulfonyl-[(5,6-dichloro-3-oxo-9a-propyl-2,3,9,9a-tetrahydro-1H-fluoren-7-yl)oxy]acetamide]	–	–	–
1.99	–	4.1	10 nM	CCC[C@]12CCC(=O)C=C1c1c(cc(OCC(=O)NS(=O)(=O)CC)c(Cl)c1Cl)C2 [SO2 C2 H5]	–	–	–
1.99	0.016	3.65	–	CCC[C@]12CCC(=O)C=C1c1c(cc(OCC(=O)NC#N)c(Cl)c1Cl)C2 [Example 5, R(+)-N-Cyano-[(5,6-dichloro-3-oxo-9a-propyl-2,3,9,9a-tetrahydro-1H-fluoren-77-yl)oxy]acetamide]	–	–	–
1.96	0.019	3.78	–	CCC[C@]12CCC(=O)C=C1c1c(cc(OCC(=O)Nc3nnn[nH]3)c(Cl)c1Cl)C2	–	–	–
